In patent US12473293B2, “Pharmacologically active heterocyclic-substituted pyrazolo[1,5-a]pyrimidine derivatives” (Richter Gedeon Nyrt., priority 2020, dated 2025):
Counter-ions that a name gives are not always drawn.

Molecular target: T1, GABAB receptor (Rattus norvegicus, UniProt O88871+Q9Z0U4)
T1 construct: from tissue; host or cells: rat brain cortex membranes
Experiment: In vitro [35S]GTPγS binding assay in rat cortical membranes
Format: biochemical
Details: PAM EC50, [35S]GTPγS binding, read-out: In vitro PAM potency
Method: In Vitro [^35S]GTPγS Binding Assay in Rat Cortical Membranes
Cortices of freshly harvested rat brains were dissected on an ice-cold surface and homogenized by a glass Dounce homogeniser immediately in ice-cold buffer containing 50 mM Tris, 5 mM MgCl2 and 1 mM EDTA (pH=7.6). Tissue homogenates were centrifuged at 40000 g for 15 min at 4° C. Membrane pellets were resuspended in the same buffer and membranes were incubated for 10 min at 30° C. in a shaking water bath to eliminate endogenous GABA. Homogenates were centrifuged again under the same conditions. The final pellets were resuspended in ice-cold buffer (pH=7.6) containing 50 mM Tris, 100 mM NaCl, 7 mM MgCl2, 1 mM EDTA and 1 mM dithiotreithol (DTT) to yield a concentration of 20 mg tissue weight/ml and frozen at −70° C. until use. The assay was done in a buffer containing 50 mM Tris (pH=7.4), 100 mM NaCl, 7 mM MgCl2, 1 mM EDTA and 1 mM DTT. Each assay tube contained 150 μL GDP (in a final concentration of 50 μM), 100 μL ligand and 125 μL of the membrane suspension ([…]). The assay tubes were preincubated for 10 min at 30° C. to assure equilibrium. Nonspecific binding was determined in the presence of 10 μM GTPγS; basal binding was determined in the presence of buffer only. After addition of […] [^35S]GTPγS in a volume of 25 μL to the tubes, membranes were incubated for an additional 60 min at 30° C. The assay was terminated by rapid filtration through Packard UniFilter GF/B using a Packard harvester and washed four times with 1 ml ice-cold buffer. After drying the filters at 40° C. for 1 h, 40 μL Microscint (Packard) was added to the filters and radioactivity of the filters was determined by a TopCount NXT (PerkinElmer, Waltham, MA; Alper and Nelson, Eur. J. Pharmacol. 1998, 343, 303-312; Rinken et al, Biochem. Pharmacol. 1999, 57, 155-162). Data thus gathered were used to determine PAM EC50 values for each compound as primary in vitro activity end point.
In Table 1 compounds of this invention measured in the [^35S]GTPγS binding assay are listed.

T1 sequence (O88871 41-940): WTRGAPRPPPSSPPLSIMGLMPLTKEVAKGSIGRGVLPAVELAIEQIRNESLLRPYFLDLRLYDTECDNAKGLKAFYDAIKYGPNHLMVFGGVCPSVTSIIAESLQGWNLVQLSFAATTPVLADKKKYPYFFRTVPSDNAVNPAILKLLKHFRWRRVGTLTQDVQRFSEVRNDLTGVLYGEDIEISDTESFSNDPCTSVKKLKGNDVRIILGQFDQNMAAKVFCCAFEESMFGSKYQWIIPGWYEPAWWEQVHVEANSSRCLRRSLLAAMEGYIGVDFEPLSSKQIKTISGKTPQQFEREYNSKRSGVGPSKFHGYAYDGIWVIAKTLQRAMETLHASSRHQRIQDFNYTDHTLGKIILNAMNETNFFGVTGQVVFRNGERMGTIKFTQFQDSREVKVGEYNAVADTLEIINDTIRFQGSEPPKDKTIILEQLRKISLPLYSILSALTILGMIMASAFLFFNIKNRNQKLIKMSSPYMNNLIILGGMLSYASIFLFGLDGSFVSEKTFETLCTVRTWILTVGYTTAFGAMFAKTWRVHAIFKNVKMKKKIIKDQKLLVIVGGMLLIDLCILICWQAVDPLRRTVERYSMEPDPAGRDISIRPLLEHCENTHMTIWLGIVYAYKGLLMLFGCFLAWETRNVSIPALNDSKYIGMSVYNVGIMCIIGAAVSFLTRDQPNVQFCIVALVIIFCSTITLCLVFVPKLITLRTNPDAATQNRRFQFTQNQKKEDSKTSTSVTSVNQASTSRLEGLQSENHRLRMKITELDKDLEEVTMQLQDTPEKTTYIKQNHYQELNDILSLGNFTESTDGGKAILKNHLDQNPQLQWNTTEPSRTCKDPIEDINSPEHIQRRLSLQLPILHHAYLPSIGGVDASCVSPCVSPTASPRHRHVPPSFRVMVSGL
T1 sequence (Q9Z0U4 17-960 limits assumed): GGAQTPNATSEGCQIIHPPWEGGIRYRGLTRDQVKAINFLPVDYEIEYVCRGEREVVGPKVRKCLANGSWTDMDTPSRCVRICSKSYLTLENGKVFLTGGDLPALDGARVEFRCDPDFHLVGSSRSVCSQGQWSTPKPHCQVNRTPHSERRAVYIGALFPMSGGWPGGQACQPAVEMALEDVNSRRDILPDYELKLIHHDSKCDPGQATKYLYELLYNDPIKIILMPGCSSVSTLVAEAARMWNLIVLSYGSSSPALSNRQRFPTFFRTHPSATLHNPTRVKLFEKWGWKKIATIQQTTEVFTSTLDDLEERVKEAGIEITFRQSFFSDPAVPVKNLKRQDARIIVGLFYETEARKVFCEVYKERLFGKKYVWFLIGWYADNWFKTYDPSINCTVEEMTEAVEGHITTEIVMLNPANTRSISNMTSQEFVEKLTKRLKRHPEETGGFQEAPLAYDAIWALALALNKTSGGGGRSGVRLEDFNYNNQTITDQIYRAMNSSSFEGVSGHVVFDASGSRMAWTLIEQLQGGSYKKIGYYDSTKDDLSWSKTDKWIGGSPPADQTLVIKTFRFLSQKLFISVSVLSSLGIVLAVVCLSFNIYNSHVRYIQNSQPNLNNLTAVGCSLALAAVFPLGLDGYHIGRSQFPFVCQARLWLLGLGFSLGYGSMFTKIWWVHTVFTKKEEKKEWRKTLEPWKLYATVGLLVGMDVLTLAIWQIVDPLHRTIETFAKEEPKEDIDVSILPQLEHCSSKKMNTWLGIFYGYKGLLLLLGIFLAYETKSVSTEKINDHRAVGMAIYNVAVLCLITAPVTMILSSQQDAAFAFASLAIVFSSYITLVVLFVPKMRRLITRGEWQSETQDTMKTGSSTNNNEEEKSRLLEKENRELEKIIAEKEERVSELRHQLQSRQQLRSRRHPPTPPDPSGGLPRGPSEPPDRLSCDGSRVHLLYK

| SMILES | EC50 [nM] |
| --- | --- |
| CC(=O)N1CC[C@H](C)[C@H](c2c(C)c(C)nc3cc([C@H]4CC[C@H](C(F)(F)F)CC4)nn23)C1 (racemic) [Example 55] | 100 to 1000 |
| COC(=O)N1CCO[C@H](c2cc(C)nc3c(F)c([C@H]4CC[C@H](C(F)(F)F)CC4)nn23)C1 [Example 130] | 100 to 1000 |
| COC(=O)N1C[C@H](c2cc(C)nc3cc([C@H]4CC[C@H](C(F)(F)F)CC4)nn23)OC[C@@H]1C(C)C [Example 127] | 100 to 1000 |
| Cc1cc([C@@H]2CCCN(C(=O)C3CC3)C2)n2nc([C@H]3CC[C@H](C(F)(F)F)CC3)cc2n1 [Example 54] | 100 to 1000 |
| COC(=O)N1CCOC(c2cc(C)nc3cc([C@H]4CC[C@H](C(F)(F)F)CC4)nn23)C1 (stereo partly drawn) [Example 84] | 100 to 1000 |
| Cc1cc([C@H]2CN(C=O)CCO2)n2nc([C@H]3CC[C@H](C(F)(F)F)CC3)cc2n1 [Example 86] | 100 to 1000 |
| COC(=O)N1CC[C@H](C)[C@H](c2cc(C)nc3cc([C@H]4CC[C@H](C(F)(F)F)CC4)nn23)C1 (single isomer, unassigned) [Example 6] | 100 to 1000 |
| Cc1cc([C@H]2CN(C=O)[C@H](C)CO2)n2nc([C@H]3CC[C@H](C(F)(F)F)CC3)cc2n1 [Example 108] | 100 to 1000 |
| CCc1c(C)nc2cc([C@H]3CC[C@H](C(F)(F)F)CC3)nn2c1[C@@]1(C)CCCN(C(C)=O)C1 [Example 35] | < 100 |
| COC(=O)N1CC[C@H](C)[C@H](c2c(C)c(C)nc3cc([C@H]4CC[C@H](C(F)(F)F)CC4)nn23)C1 [Example 77] | < 100 |
| COC(=O)N1C[C@@H](c2cc(C)nc3cc([C@H]4CC[C@H](C(F)(F)F)CC4)nn23)OC[C@@H]1C [Example 96] | 1000 to 10000 |
| COC(=O)N1C[C@@H](c2cc(C)nc3cc([C@H]4CC[C@H](C(F)(F)F)CC4)nn23)OC[C@@H]1C(C)C [Example 122] | 100 to 1000 |
| Cc1cc([C@@H]2CN(C=O)[C@@H](C)CO2)n2nc([C@H]3CC[C@H](C(F)(F)F)CC3)cc2n1 [Example 98] | 1000 to 10000 |
| COC(=O)N1C[C@@H](c2cc(C)nc3cc([C@H]4CC[C@H](C(F)(F)F)CC4)nn23)O[C@@H](C)C1 [Example 124] | ≥ 10000 |
| Cc1cc([C@@H]2CCCN(C3CCOC3)C2)n2nc([C@H]3CC[C@H](C(F)(F)F)CC3)cc2n1 (stereo partly drawn) [Example 63] | 100 to 1000 |
| COC(=O)N1CC[S+]([O-])C(c2cc(C)nc3cc([C@H]4CC[C@H](C(F)(F)F)CC4)nn23)C1 (stereo partly drawn) [Example 17] | 1000 to 10000 |
| Cc1cc(C2OCCN(C)C2=O)n2nc([C@H]3CC[C@H](C(F)(F)F)CC3)cc2n1 (stereo partly drawn) [Example 30, 4-methyl-2-{5-methyl-2-[trans-4-(trifluoromethyl)cyclohexyl]pyrazolo[1,5-a]pyrimidin-7-yl}morpholin-3-one] | 1000 to 10000 |
| Cc1cc(C2CN(C3COC3)CCC2(C)C)n2nc([C@H]3CC[C@H](C(F)(F)F)CC3)cc2n1 (stereo partly drawn) [Example 60] | 100 to 1000 |
| Cc1cc([C@@H]2CCCN(C(=O)N3CCOCC3)C2)n2nc([C@H]3CC[C@H](C(F)(F)F)CC3)cc2n1 [Example 65] | 1000 to 10000 |
| Cc1cc([C@H]2CN(S(=O)(=O)N(C)C)CCO2)n2nc([C@H]3CC[C@H](C(F)(F)F)CC3)cc2n1 [Example 120] | 100 to 1000 |
| CC(=O)N1CCC[C@@H](c2c(C)c(C)nc3cc([C@H]4CC[C@H](C(F)(F)F)CC4)nn23)C1 [Example 33] | 100 to 1000 |
| Cc1cc([C@H]2CCCN(C=O)[C@H]2C)n2nc([C@H]3CC[C@H](C(F)(F)F)CC3)cc2n1 (racemic) [Example 81] | 100 to 1000 |
| Cc1cc([C@H]2CN(C(=O)c3nnc(C)o3)CCO2)n2nc([C@H]3CC[C@H](C(F)(F)F)CC3)cc2n1 [Example 123] | 100 to 1000 |
| COC(=O)N1C[C@H](C)O[C@@H](c2cc(C)nc3cc([C@H]4CC[C@H](C(F)(F)F)CC4)nn23)C1 [Example 125] | 100 to 1000 |
| COC(=O)N1CC[C@H](C)[C@H](c2cc(C)nc3cc([C@H]4CC[C@H](C(F)(F)F)CC4)nn23)C1 (racemic) [Example 76] | 100 to 1000 |
| CC(=O)N1CCC[C@@](C)(c2c(C)c(C)nc3cc([C@H]4CC[C@H](C(F)(F)F)CC4)nn23)C1 [Example 45] | 100 to 1000 |

| SMILES | EC50 [nM] |
| --- | --- |
| CCC1CCN(C=O)CC1c1cc(C)nc2cc([C@H]3CC[C@H](C(F)(F)F)CC3)nn12 (stereo partly drawn) [Example 72] | 100 to 1000 |
| CC(=O)N1CCO[C@@H](c2cc(C)nc3cc([C@H]4CC[C@H](C(F)(F)F)CC4)nn23)C1 [Example 109] | 100 to 1000 |
| CC(=O)N1CCOC(c2c(C)c(C)nc3cc([C@H]4CC[C@H](C(F)(F)F)CC4)nn23)C1 (stereo partly drawn) [Example 70] | 100 to 1000 |
| Cc1cc([C@@H]2CCCS(=O)(=O)C2)n2nc([C@H]3CC[C@H](C(F)(F)F)CC3)cc2n1 [Example 27, 3-{5-methyl-2-[trans-4-(trifluoromethyl)cyclohexyl]pyrazolo[1,5-a]pyrimidin-7-yl}-1λ^6-thiane-1,1-dione] | 100 to 1000 |
| Cc1cc([C@]2(C)CCCN(C=O)C2)n2nc([C@H]3CC[C@H](C(F)(F)F)CC3)cc2n1 [Example 69] | 100 to 1000 |
| Cc1cc([C@@H]2CN(C=O)CC[C@@H]2C)n2nc([C@H]3CC[C@H](C(F)(F)F)CC3)cc2n1 (single isomer, unassigned) [Example 8] | 1000 to 10000 |
| Cc1cc([C@H]2CCCOC2)n2nc([C@H]3CC[C@H](C(F)(F)F)CC3)cc2n1 (single isomer, unassigned) [Example 28] | < 100 |
| COC(=O)N1CC[C@H](C)[C@@H](c2cc(C)nc3cc([C@H]4CC[C@H](C(F)(F)F)CC4)nn23)C1 (racemic) [Example 159] | 100 to 1000 |
| Cc1cc([C@@H]2CN(C(=O)CN)CC[C@H]2C)n2nc([C@H]3CC[C@H](C(F)(F)F)CC3)cc2n1 [Example 53] | 1000 to 10000 |
| CCOC(=O)N1CCC[C@H](c2cc(C)nc3cc([C@H]4CC[C@H](C(F)(F)F)CC4)nn23)[C@@H]1C [Example 107] | 1000 to 10000 |
| CC(=O)N1CCC[C@](C)(c2cc(C)nc3cc([C@H]4CC[C@H](C(F)(F)F)CC4)nn23)C1 [Example 36] | 1000 to 10000 |
| Cc1nc2cc([C@H]3CC[C@H](C(F)(F)F)CC3)nn2c([C@]2(C)CCCN(CC#N)C2)c1C [Example 18, 2-[(3R)-3-{5,6-dimethyl-2-[trans-4-(trifluoromethyl)cyclohexyl]pyrazolo[1,5-a]pyrimidin-7-yl}-3-methylpiperidin-1-yl]acetonitrile hydrochloride] | 100 to 1000 |
| Cc1cc([C@@H]2CN(C=O)CC[C@@H]2C)n2nc([C@H]3CC[C@H](C(F)(F)F)CC3)cc2n1 (racemic) [Example 160] | 100 to 1000 |
| Cc1nc2cc([C@H]3CC[C@H](C(F)(F)F)CC3)nn2c(C2CN(C(=O)C3(C)COC3)CC(F)(F)C2)c1C (stereo partly drawn) [Example 79] | 100 to 1000 |
| Cc1cc([C@H]2CN(C(N)=O)CCO2)n2nc([C@H]3CC[C@H](C(F)(F)F)CC3)cc2n1 [Example 26, (2R)-2-{5-methyl-2-[trans-4-(trifluoromethyl)cyclohexyl]pyrazolo[1,5-a]pyrimidin-7-yl}morpholine-4-carboxamide] | 100 to 1000 |
| Cc1cc(C2(C)CN(C=O)CC(F)(F)C2)n2nc([C@H]3CC[C@H](C(F)(F)F)CC3)cc2n1 (stereo partly drawn) [Example 78] | 100 to 1000 |
| COC(=O)N1C[C@@H](c2cc(C)nc3cc([C@H]4CC[C@H](C(F)(F)F)CC4)nn23)OCC1(C)C (single isomer, unassigned) [Example 12] | 1000 to 10000 |
| Cc1cc(C2CN(C=O)CCC2(C)C)n2nc([C@H]3CC[C@H](C(F)(F)F)CC3)cc2n1 (stereo partly drawn) [Example 59] | 100 to 1000 |
| Cc1cc(C2CCCOC2)n2nc([C@H]3CC[C@H](C(F)(F)F)CC3)cc2n1 (mixture of isomers) [Example 161] | 100 to 1000 |
| COC(=O)N1CC(c2c(C)c(C)nc3cc([C@H]4CC[C@H](C(F)(F)F)CC4)nn23)CC(F)(F)C1 (stereo partly drawn) [Example 74] | 100 to 1000 |
| Cc1cc([C@@H]2CCCOC2)n2nc([C@H]3CC[C@H](C(F)(F)F)CC3)cc2n1 (single isomer, unassigned) [Example 29] | 100 to 1000 |
| Cc1cc([C@H]2C[C@@H](C)CN(C=O)C2)n2nc([C@H]3CC[C@H](C(F)(F)F)CC3)cc2n1 (racemic) [Example 104] | 100 to 1000 |
| Cc1cc([C@H]2CCCN(C=O)[C@@H]2C)n2nc([C@H]3CC[C@H](C(F)(F)F)CC3)cc2n1 [Example 89] | 100 to 1000 |
| Cc1cc([C@H]2CN(S(N)(=O)=O)CCO2)n2nc([C@H]3CC[C@H](C(F)(F)F)CC3)cc2n1 [Example 25, (2R)-2-{5-methyl-2-[trans-4-(trifluoromethyl)cyclohexyl]pyrazolo[1,5-a]pyrimidin-7-yl}morpholine-4-sulfonamide] | < 100 |
| Cc1cc([C@]2(C)CCCN(CC#N)C2)n2nc([C@H]3CC[C@H](C(F)(F)F)CC3)cc2n1 [Example 50] | 100 to 1000 |
